Values of other authors as cited in publication PMC7114187 (Antiviral Research, 2008).

Test system: NA^WT(WSN) with H274Y mutation
Details: cited from earlier work

SMILES: CCOC(=O)C1=C[C@@H](OC(CC)CC)[C@H](NC(C)=O)[C@@H](N)C1 [Oseltamivir, oseltamivir]
- fold increase in the IC50 by H274Y mutation: 754 fold
